The NIST ThermoML archive (doi:10.1021/je200806n)

Columns and labels:
[1] = 101.3 kPa, Liquid
[2] = xn = mol fraction of the nth substance listed; settings: 101.3 kPa, Liquid

CCCCCC(C)O (centres undefined) [2-heptanol]
[1]
Settings	mass density [kg/m3]	viscosity [mPa·s]
298.15 K	813.18	5.023
303.15 K	809.26	4.151
308.15 K	805.01	3.478
313.15 K	801.14	2.852

CCCCC(C)O (centres undefined) [2-hexanol]
[1]
Settings	mass density [kg/m3]	viscosity [mPa·s]
298.15 K	810.14	4.101
303.15 K	806.13	3.411
308.15 K	802.06	2.819
313.15 K	797.96	2.219

CCC(C)O (centres undefined) [butan-2-ol]
[1]
Settings	mass density [kg/m3]	viscosity [mPa·s]
298.15 K	803.01	3.104
303.15 K	798.29	2.597
308.15 K	793.57	2.152
313.15 K	789.15	1.733

O=C1CCCCC1 [cyclohexanone]
[1]
Settings	mass density [kg/m3]	viscosity [mPa·s]
298.15 K	941.91	2.057
303.15 K	937.24	1.847
308.15 K	932.67	1.694
313.15 K	927.72	1.546

CCCC(C)O (centres undefined) [pentan-2-ol]
[1]
Settings	mass density [kg/m3]	viscosity [mPa·s]
298.15 K	805.41	3.499
303.15 K	801.21	2.801
308.15 K	796.64	2.334
313.15 K	792.51	1.993

CCCC(C)O (centres undefined) [pentan-2-ol] + O=C1CCCCC1
[2]
Settings	mass density, 298.15 K [kg/m3]	mass density, 303.15 K [kg/m3]	mass density, 308.15 K [kg/m3]	mass density, 313.15 K [kg/m3]	viscosity, 298.15 K [mPa·s]	viscosity, 303.15 K [mPa·s]	viscosity, 308.15 K [mPa·s]	viscosity, 313.15 K [mPa·s]
x2 = 0	805.41	801.21	796.64	792.51	3.499	2.801	2.334	1.993
x2 = 0.0824	815.31	810.99	806.31	801.99	2.631	2.307	1.891	1.596
x2 = 0.1615	825.12	820.69	815.92	811.53	2.178	1.893	1.541	1.285
x2 = 0.2401	835.08	830.58	825.68	821.06	1.822	1.58	1.265	1.056
x2 = 0.3492	849.18	844.64	839.56	834.77	1.465	1.241	1.007	0.838
x2 = 0.4397	861.19	856.51	851.41	846.47	1.277	1.081	0.881	0.75
x2 = 0.5607	877.71	872.97	867.74	862.65	1.191	1.016	0.865	0.771
x2 = 0.6496	890.14	885.41	880.19	875.09	1.23	1.072	0.935	0.848
x2 = 0.7399	903.04	898.27	893.11	888.08	1.354	1.205	1.062	0.982
x2 = 0.8498	919.21	914.43	909.42	904.33	1.597	1.417	1.294	1.194
x2 = 0.9396	932.71	928.12	923.33	917.99	1.855	1.685	1.523	1.388

CC(C)O [propan-2-ol]
[1]
Settings	mass density [kg/m3]	viscosity [mPa·s]
298.15 K	781.09	2.055
303.15 K	776.57	1.788
308.15 K	771.87	1.563
313.15 K	767.36	1.378

CC(C)O [propan-2-ol] + O=C1CCCCC1
[2], x2 = 0
Settings	mass density [kg/m3]	viscosity [mPa·s]
298.15 K	781.09	2.055
303.15 K	776.57	1.788
308.15 K	771.87	1.563
313.15 K	767.36	1.378
